Data from publication PMC8050276, “Estradiol analogs attenuate autophagy, cell migration and invasion by direct and selective inhibition of TRPML1, independent of estrogen receptors” (Scientific Reports, 2021).
Several values for one entry are separate records, joined by “and”; a condition that tells them apart may be missing. Equal entries are not always repeated. Entries after “also recorded” stand apart in the source; their conditions may differ. Where two headings read alike, the source gives them in different places.

Legend:
[1] = biological target: T1, hTRPML1∆NC-YFP (Homo sapiens, UniProt Q9GZU1); format: cell-based; conditions: for IC50: read-out: TRPML1 IC50, Fluo-4, 5 µM ML-SA1, Fig. 2a/4, Table S1
Experimental: (§1) To identify inhibitors of TRPML1 and TRPML3, the Spectrum Collection compound library (MS Discoveries; 2000 compounds) and additional 430 bioactive compounds were screened. To this end, fluorometric Ca^2+ influx assays were performed by using the calcium dye Fluo-4/AM (Invitrogen, Thermo Fisher Scientific, Waltham, MA, USA) and a custom-made fluorescence imaging plate reader built into a robotic liquid handling station (Freedom Evo 150, Tecan, Männedorf, Switzerland). […] Screening compounds dissolved in DMSO (10 mM) were prediluted in 150 mM NaCl, 20 mM HEPES, pH 7.4, to a concentration of 200 µM. For primary screens, HEK293 stably expressing plasma membrane-targeted TRPML1 or TRPML3 were trypsinized and resuspended in cell culture medium supplemented with 4 µM Fluo-4/AM. After incubation at 37 °C for 30 min, the cell suspension was briefly centrifuged resuspended in HBS, and dispensed into black pigmented, clear-bottom 384-well microwell plates (Greiner μClear, Frickenhausen, Germany). Plates were placed into the FLIPR and fluorescence signals (excitation 470 nm, emission 515 nm) were recorded with a Zyla 5.5 camera (Andor, Belfast, UK) and the μManager software like previously described. In a first video, compound libraries were successively added to the cells with the Tecan 96-tip multichannel arm to a final concentration of 20 µM to map unspecific effects like autofluorescence or toxicity. In a second step the agonist ML-SA1 was pipetted in each well and fluorescence signals were recorded for 10 min. Analyses were done by calculating fluorescence intensities for each well and background areas with ImageJ (National Institutes of Health, Bethesda, MD, USA). Finally, the background was subtracted and the fluorescence intensities were normalized to initial intensities (F/F0). Concentration response curves were generated by the same procedure but compounds were manually prediluted in 96-well plates containing HBS, now supplemented with 0.1% bovine serum albumin. Here data was fitted to a four-parameter Hill equation to obtain Imin, Imax, IC50), and the Hill coefficient n.

[2] = tested on: hTRPML1∆NC-YFP; format: cell-based, human
Experimental: as §1

[3] = biological target: T2, hTRPML2-YFP (Homo sapiens, UniProt Q8IZK6); assay: Fluo-4 Ca2+ influx assay, HEK293 stably expressing hTRPML2-YFP, activated with ML-SA1; format: cell-based
T2 construct: expressed in transfected cells
T2 sequence (Q8IZK6 1-566): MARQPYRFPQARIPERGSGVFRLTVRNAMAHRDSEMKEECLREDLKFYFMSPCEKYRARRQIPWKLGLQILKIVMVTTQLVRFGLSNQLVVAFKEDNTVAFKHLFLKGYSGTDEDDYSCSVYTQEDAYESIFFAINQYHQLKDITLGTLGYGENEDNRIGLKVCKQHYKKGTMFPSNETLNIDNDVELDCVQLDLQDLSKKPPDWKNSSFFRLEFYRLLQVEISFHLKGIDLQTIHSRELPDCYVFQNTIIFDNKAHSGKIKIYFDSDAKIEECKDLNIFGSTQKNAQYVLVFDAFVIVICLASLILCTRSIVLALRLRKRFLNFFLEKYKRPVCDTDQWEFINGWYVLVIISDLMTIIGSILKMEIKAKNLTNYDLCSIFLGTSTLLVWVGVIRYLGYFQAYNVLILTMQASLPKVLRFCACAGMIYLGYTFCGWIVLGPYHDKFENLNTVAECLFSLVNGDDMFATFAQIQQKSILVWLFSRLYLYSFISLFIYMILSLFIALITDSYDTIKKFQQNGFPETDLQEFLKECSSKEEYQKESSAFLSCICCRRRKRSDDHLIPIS

[4] = biological target: T3, hTRPML3-YFP (Homo sapiens, UniProt Q8TDD5); assay: Fluo-4 Ca2+ influx assay, HEK293 stably expressing hTRPML3-YFP, activated with ML-SA1; format: cell-based
T3 construct: expressed in transfected cells
Experimental: To identify inhibitors of TRPML1 and TRPML3, the Spectrum Collection compound library (MS Discoveries; 2000 compounds) and additional 430 bioactive compounds were screened. To this end, fluorometric Ca^2+ influx assays were performed by using the calcium dye Fluo-4/AM (Invitrogen, Thermo Fisher Scientific, Waltham, MA, USA) and a custom-made fluorescence imaging plate reader built into a robotic liquid handling station (Freedom Evo 150, Tecan, Männedorf, Switzerland). All measurements were done in a HEPES buffered solution (HBS), containing 132 mM NaCl, 6 mM KCl, 1 mM MgCl2, 1 mM CaCl2, 5.5 mM D-glucose, 10 mM HEPES, pH 7.4. Screening compounds dissolved in DMSO (10 mM) were prediluted in 150 mM NaCl, 20 mM HEPES, pH 7.4, to a concentration of 200 µM. For primary screens, HEK293 stably expressing plasma membrane-targeted TRPML1 or TRPML3 were trypsinized and resuspended in cell culture medium supplemented with 4 µM Fluo-4/AM. After incubation at 37 °C for 30 min, the cell suspension was briefly centrifuged resuspended in HBS, and dispensed into black pigmented, clear-bottom 384-well microwell plates (Greiner μClear, Frickenhausen, Germany). Plates were placed into the FLIPR and fluorescence signals (excitation 470 nm, emission 515 nm) were recorded with a Zyla 5.5 camera (Andor, Belfast, UK) and the μManager software like previously described. In a first video, compound libraries were successively added to the cells with the Tecan 96-tip multichannel arm to a final concentration of 20 µM to map unspecific effects like autofluorescence or toxicity. In a second step the agonist ML-SA1 was pipetted in each well and fluorescence signals were recorded for 10 min. Analyses were done by calculating fluorescence intensities for each well and background areas with ImageJ (National Institutes of Health, Bethesda, MD, USA). Finally, the background was subtracted and the fluorescence intensities were normalized to initial intensities (F/F0). Concentration response curves were generated by the same procedure but compounds were manually prediluted in 96-well plates containing HBS, now supplemented with 0.1% bovine serum albumin. Here data was fitted to a four-parameter Hill equation to obtain Imin, Imax, IC50), and the Hill coefficient n.

[5] = tested on: LC3; assay: Autophagy assay, LC3 immunoblot in human fibroblasts (Fed/Hbss, with bafilomycin A1); format: cell-based; conditions: Hbss starvation, with BafA1
Experimental: 5 × 10^4 wild-type human fibroblasts were seeded in a 12-well plate and treated overnight with DMSO or different TRPML1 inhibitors (EDME, PRU-10, PRU-12). The day after, cells were treated for 3 h in full media (Fed) or HBSS supplemented with 10 mM HEPES (nutrient starved) in presence of DMSO or different TRPML1 inhibitors (EDME, PRU-10, PRU-12). For autophagic flux experiments, cells were co-treated with 100 nM of bafilomycin A1 (Sigma).
Total cell lysates were prepared using TRIS HCl 10 mM pH 8.0 and 0.2% SDS supplemented with protein and phosphatase inhibitors (Sigma). Protein concentration was determined using the Bradford method. After SDS–polyacrylamide gel electrophoresis (PAGE) and immunoblotting, the protein recognized by the specific antibody was visualized by chemiluminescence methods (Luminata Crescendo Western HRP substrate, Millipore) using HRP-conjugated anti-rabbit or anti-mouse secondary antibodies (Cell Signalling). Images were acquired using Li-Cor Odyssey Fc Imaging System and densitometric quantification of unsaturated images was performed using ImageJ software (NIH). Uncropped and unprocessed western blot scans are provided as Fig. S1. The following primary antibodies were used: LC3 (Novus Cat. No. NB100-2220, 1:1000 in 5% milk), TFEB (Cell Signaling Cat. No. 4240, 1:1000 in 5% BSA) and β-actin (Santa Cruz Cat. No. Sc-47778, 1: 1000 in 5% BSA).

[6] = biological target: T1, hTRPML1∆NC-YFP; conditions: 10 µM compound after 10 µM ML-SA1
Experimental: Single cell Ca^2+ imaging experiments were performed using Fura-2 as previously described. HEK293 cells stably expressing hTRPML1∆NC-YFP, hTRPML2-YFP, hTPPML3-YFP or hTPC2L11A/L12A-RFP (22, 24) were cultured at 37 °C with 5% of CO2 in Dulbecco’s modified Eagle medium (Thermo Fisher), supplemented with 10% fetal bovine serum, 100 U/mL penicillin, and 0.1 mg/mL streptomycin. Cells were plated onto poly-L-lysine (sigma)-coated glass coverslips and grown for 2–3 days. For Ca^2+ imaging experiments cells were loaded for 1 h at room temperature with Fura-2 AM (4.0 µM) and 0.005% (v/v) pluronic acid (both from Thermo Fisher) in HEPES-buffered solution (HBS) comprising 138 mM NaCl, 6 mM KCl, 2 mM MgCl2, 2 mM CaCl2, 10 mM HEPES, and 5.5 mM D-glucose (adjusted to pH 7.4 with NaOH). After loading, cells were washed with HBS and mounted in an imaging chamber. All recordings were performed in HBS. Ca^2+ imaging was performed using a Leica DMi8 live cell microscope. Fura-2 was excited at 340 nm/380 nm. Emitted fluorescence was captured using 515 nm long-pass filter. Compounds were pre diluted in DMSO and stored as 10 mM stock solutions at − 20 °C, not exceeding three months. Working solutions were prepared directly before using by dilution with HBS.

[7] = biological target: T4, human ERα (Homo sapiens, UniProt P03372); assay: Yeast estrogen receptor assay (YES-assay), Saccharomyces cerevisiae transfected with human ERα, lacZ reporter; format: cell-based; conditions: 0.01-100 µM, 48 h
T4 construct: host or cells: Saccharomyces cerevisiae
Experimental: The yeast estrogen receptor assay (YES-assay) was provided by Dr. J.P. Sumpter (Brunel University, Uxbridge, UK; Routledge & Sumpter, 1996) and was used to determine the relative transactivation activity of the human ERα in response to test substances as previously described. Briefly, Saccharomyces cerevisiae stably transfected with a human ERα construct and an estrogen responsive element fused to the reporter gene lacZ encoding for β-galactosidase were treated with the test substances for 48 h. The β-galactosidase enzymatic activity was measured in a colorimetric assay using the substrate chlorophenol red β-D-galactopyranoside (Roche Diagnostics, Mannheim Germany). Formation of chlorophenol red was measured at 540 nm. For the test, all compounds were diluted in DMSO. 17β-estradiol (10 nM; Sigma, Deisenhofen, Germany) served as positive control and DMSO was used as vehicle control. All compounds, were dose dependently tested in a concentration range of 0.01–100 µM, using technical quadruplicates and biological triplicates.

[8] = TRPML2 IC50, Fluo-4, 5 µM ML-SA1, Table S1
[9] = Fluo-4, 5 µM ML-SA1, Table S1, read-out: TRPML3 IC50

T4 sequence (P03372 whole entry): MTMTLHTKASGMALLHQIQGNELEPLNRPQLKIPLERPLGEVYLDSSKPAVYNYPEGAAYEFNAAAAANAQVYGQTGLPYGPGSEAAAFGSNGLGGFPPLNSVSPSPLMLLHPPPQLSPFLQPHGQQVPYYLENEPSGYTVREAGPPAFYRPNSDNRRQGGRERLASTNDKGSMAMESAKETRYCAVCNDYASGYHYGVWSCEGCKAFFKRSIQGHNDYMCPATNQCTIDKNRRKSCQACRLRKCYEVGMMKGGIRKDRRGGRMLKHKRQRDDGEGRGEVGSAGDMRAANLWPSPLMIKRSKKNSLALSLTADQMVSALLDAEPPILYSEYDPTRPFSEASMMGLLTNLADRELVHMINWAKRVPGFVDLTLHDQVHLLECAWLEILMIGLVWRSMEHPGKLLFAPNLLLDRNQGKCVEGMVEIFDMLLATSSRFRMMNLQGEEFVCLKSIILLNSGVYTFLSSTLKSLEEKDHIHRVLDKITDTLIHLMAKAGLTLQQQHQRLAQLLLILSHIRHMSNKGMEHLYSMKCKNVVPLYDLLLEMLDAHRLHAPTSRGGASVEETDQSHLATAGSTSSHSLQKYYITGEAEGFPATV
T3 sequence (Q8TDD5 whole entry): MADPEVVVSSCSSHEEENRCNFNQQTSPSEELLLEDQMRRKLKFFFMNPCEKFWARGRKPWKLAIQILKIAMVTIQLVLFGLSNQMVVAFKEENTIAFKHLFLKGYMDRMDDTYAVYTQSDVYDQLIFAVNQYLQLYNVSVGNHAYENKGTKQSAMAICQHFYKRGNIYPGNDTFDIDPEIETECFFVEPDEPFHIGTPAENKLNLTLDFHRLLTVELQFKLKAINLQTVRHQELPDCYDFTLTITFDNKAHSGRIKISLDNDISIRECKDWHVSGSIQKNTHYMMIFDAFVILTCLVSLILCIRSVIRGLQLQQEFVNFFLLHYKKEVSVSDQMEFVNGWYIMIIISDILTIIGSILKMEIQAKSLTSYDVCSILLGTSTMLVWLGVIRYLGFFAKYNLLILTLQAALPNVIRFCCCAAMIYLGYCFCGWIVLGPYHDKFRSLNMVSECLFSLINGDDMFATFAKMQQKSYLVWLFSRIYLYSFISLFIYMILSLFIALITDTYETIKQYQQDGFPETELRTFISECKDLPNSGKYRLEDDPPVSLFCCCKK
T1 sequence (Q9GZU1 whole entry): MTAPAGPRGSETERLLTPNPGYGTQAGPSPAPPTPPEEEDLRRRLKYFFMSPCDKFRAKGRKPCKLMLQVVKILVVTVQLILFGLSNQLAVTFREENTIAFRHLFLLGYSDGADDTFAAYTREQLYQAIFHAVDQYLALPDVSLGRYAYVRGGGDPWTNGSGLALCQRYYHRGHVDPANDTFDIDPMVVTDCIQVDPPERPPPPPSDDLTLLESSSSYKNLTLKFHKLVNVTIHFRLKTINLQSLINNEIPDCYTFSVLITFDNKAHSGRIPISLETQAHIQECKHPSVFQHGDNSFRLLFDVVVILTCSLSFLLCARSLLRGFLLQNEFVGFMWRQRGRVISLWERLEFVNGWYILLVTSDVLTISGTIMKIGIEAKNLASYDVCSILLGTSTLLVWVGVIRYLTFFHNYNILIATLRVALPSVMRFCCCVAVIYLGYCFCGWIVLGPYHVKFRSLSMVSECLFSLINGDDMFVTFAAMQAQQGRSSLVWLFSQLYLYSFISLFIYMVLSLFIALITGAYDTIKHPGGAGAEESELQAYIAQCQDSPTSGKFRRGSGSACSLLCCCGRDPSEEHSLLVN

SMILES | IC50 [1] | TRPML1 versus TRPML3 selectivity ([2]; Fluo-4, TRPML1 vs TRPML3, 5 µM ML-SA1) | TRPML1:TRPML2 fold selectivity ([2]; ratio of Fluo-4 IC50 values) | IC50 [3, 8] | IC50 [4, 9] | concentration showing efficacy on autophagy (LC3) [5] | effect on autophagy (LC3) at 10 nM or 1 µM [5] | activity in concentration-response measurements on TRPML1 ([1]; Fluo-4, 5 µM ML-SA1) | IC50 ([3]; Fluo-4, 5 µM ML-SA1, Table S1, read-out: TRPML2 IC50) | IC50 [4] | efficacy in blocking TRPML1, Fura-2 [6] | effect/efficacy at ERα [7] | TRPML isoform selectivity profile ([2]; TRPML1, 2, 3 and TPC2, Fluo-4) | TRPML1:TRPML3 fold selectivity ([2]; ratio of Fluo-4 IC50 values)
C[C@]12CC[C@@H]3c4ccc(O)cc4CC[C@H]3[C@@H]1CC[C@@H]2O [Estradiol, 17β-estradiol] | 5.3 µM | stronger inhibitory effects on TRPML1 than on TRPML3 | 5.77 fold | 30.4 µM | > 50 µM | 10 µM | no effect | – | – | – | – | – | – | –
COc1ccc2c(c1)CC[C@@H]1[C@@H]2CC[C@]2(C)[C@H](O)CC[C@@H]12 [PRU-2] | 13.8 µM and 14 µM | – | 2.67 fold | – | – | – | – | only poor activity | 37 µM | > 50 µM | exception | relatively low efficacy; also recorded: weakest effects | – | –
C[C@]12CC[C@@H]3c4ccc(Oc5ccccc5)cc4CC[C@H]3[C@@H]1CC[C@@H]2O [PRU-8] | 0.72 µM | – | 21.28 fold | 15.3 µM | 38.6 µM | – | – | – | – | – | – | strong effect | further improved selectivity profile compared to EDME; also recorded: very good selectivity profile | 53.68 fold
